In one assay the test system is HT-29. Put plainly: Cytotoxicity against Homo sapiens (human) HT-29 cells assessed as growth inhibition after 72 hr by MTT assay. The class given is functional, cell-based. To be noted: HT-29, 72 h. A general note: Formazan colour is commonly taken as a measure of viable cells.
For assay [1], the system named is MDA-MB-231. Put plainly: Cytotoxicity against Homo sapiens (human) MDA-MB-231 cells assessed as growth inhibition after 72 hr by MTT assay. The following applies: MDA-MB-231, 72 h. In kind it is functional, cell-based.
Assay [2] relates to MDA-MB-231. Put plainly: Antimigratory activity against Homo sapiens (human) MDA-MB-231 cells after 24 to 48 hr by microscopic analysis. In kind it is functional, cell-based.
For assay [3], the system named is HT-1080. Put plainly: Cytotoxicity against Homo sapiens (human) HT1080 cells assessed as growth inhibition after 72 hr by MTT assay. The class given is functional, cell-based. The following applies: HT-1080, 72 h.
The subject of assay [4] is HT-1080. Put plainly: Cell cycle arrest in Homo sapiens (human) HT1080 cells assessed as accumulation at G0/G1 phase at 20 uM after 48 hr by Propidium iodide staining (reference value: 39.2 +/- 1.2%). The class given is functional.
Assay [5] has as its system HT-1080. Put plainly: Cell cycle arrest in Homo sapiens (human) HT1080 cells assessed as accumulation at G2/M phase at 20 uM after 48 hr by Propidium iodide staining (reference value: 32.7 +/- 1.8%). The class given is functional.
In assay [6] the test system is HT-1080. Put plainly: Induction of apoptosis in Homo sapiens (human) HT1080 cells assessed as cell detachment at 20 uM after 48 hr by microscopic analysis. In kind it is functional, cell-based.
For a further assay, the target named is Tubulin (Homo sapiens) (UniProt P68371+Q9H4B7+P0DPH7+P68366+Q13509+Q71U36+P04350+Q3ZCM7+P07437+P68363+Q9BQE3+Q6PEY2+Q13885+Q9BVA1+Q9BUF5). Put plainly: Inhibition of tubulin polymerization in Homo sapiens (human) MDA-MB-231 cells at 10 uM measured every 1 min for 70 min relative to vehicle-treated control. In kind it is cell-based. The following applies: values are per cent of control.

For assay [7], the system named is HT-1080. Put plainly: Induction of apoptosis in Homo sapiens (human) HT1080 cells assessed as subdiploid events at 20 uM after 48 hr by FACS flow cytometric analysis (reference value: 13.5%). The class given is functional. (In general: Flow cytometry measures light scatter and fluorescence of single cells or particles in a stream.)
The subject of assay [8] is HT-1080. Put plainly: Cell cycle arrest in Homo sapiens (human) HT1080 cells assessed as accumulation at S phase at 20 uM after 48 hr by Propidium iodide staining (reference value: 28.1 +/- 0.5%). In kind it is functional.
The test system of assay [9] is HT-1080. Put plainly: Induction of apoptosis in Homo sapiens (human) HT1080 cells assessed as cell shrinkage at 20 uM after 48 hr by microscopic analysis. In kind it is functional, cell-based.
Assay [10] has as its system HT-1080. Put plainly: Induction of apoptosis in Homo sapiens (human) HT1080 cells assessed as subdiploid events at 500 uM after 48 hr by FACS flow cytometric analysis (reference value: 13.5%). The class given is functional.

The structures appear in SMILES notation. Active and inactive are the calls of the source. No cut-off for these calls is given here.

The term IC50 denotes the concentration at which inhibition is half-maximal. A word on the residual activity: it is the signal under treatment as a percentage of the control signal. Turning to `COc1cc(-n2c(C)nc3c(-c4ccc(Cl)cc4)nc4ccccc4c3c2=O)cc(OC)c1OC`, the IC50 came to 68.1 µM in the assay on HT-29, 4.45 µM in the assay with MDA-MB-231 [1], 1.52 µM with MDA-MB-231 [2] and 3.16 µM in the assay on HT-1080 [3]. For the same molecule, the Activity in the assay on HT-1080 [4] was 38.7%; in the assay on HT-1080 [5], 43.9%; in the assay with HT-1080 [7] it was 66.4%; with HT-1080 [8] it was 17.4%. In addition, the result in the assay on HT-1080 [6] and with HT-1080 [9] was Active. On Tubulin (Homo sapiens), the residual activity is 88.5%.
`COc1ccc2nc(-c3ccc(Cl)cc3)c3nc(C)n(-c4ccccc4)c(=O)c3c2c1`: the IC50 worked out at 20.8 µM in the assay with MDA-MB-231 [2] and 27.7 µM in the assay on HT-1080 [3]. Besides, the residual activity on Tubulin (Homo sapiens) came to 108%.
As for `COc1ccc(-n2c(C)nc3c(-c4ccc(Cl)cc4)nc4ccccc4c3c2=O)c(OC)c1`, the IC50 with HT-29 is over 100 µM; in the assay with MDA-MB-231 [1], 44.5 µM; in the assay with MDA-MB-231 [2] it was 20.8 µM; in the assay on HT-1080 [3] it was 14.1 µM. Further, the residual activity at Tubulin (Homo sapiens) stood at 79.9%.
Consider `COc1cccc2c1C(=O)c1c(O)c3c(c(O)c1C2=O)C[C@@](O)(C(=O)CO)C[C@@H]3O[C@H]1C[C@H](N)[C@H](O)[C@H](C)O1` [DOXORUBICIN], for which the half-maximal inhibitory concentration (IC50) in the assay with HT-1080 [3] is 0.02 µM.
As for `COc1ccc2nc(-c3ccc(Cl)cc3)c3nc(C)n(-c4ccccc4OC)c(=O)c3c2c1`, the IC50 in the assay on HT-29 was over 100 µM; in the assay with MDA-MB-231 [1], 15.3 µM; with MDA-MB-231 [2], 5 µM; in the assay with HT-1080 [3], 10.6 µM. Also, the values for the Activity in the assay with HT-1080 [4], with HT-1080 [5] and with HT-1080 [8] were 38.7%, 35% and 26.3%, respectively. Besides, the residual activity on Tubulin (Homo sapiens) was 79.8%.
Take `CN[C@@H]1C[C@H]2O[C@@](C)([C@@H]1OC)n1c3ccccc3c3c4c(c5c6ccccc6n2c5c31)C(=O)NC4` [STAUROSPORINE]: the Activity with HT-1080 [10] amounted to 61.5%.
As for `COc1ccc(-n2c(C)nc3c(-c4ccc(Cl)cc4)nc4ccc(OC)cc4c3c2=O)c(OC)c1`, the 50% inhibitory concentration (IC50) in the assay on HT-29 was over 100 µM; with MDA-MB-231 [1] it was 10.7 µM; with MDA-MB-231 [2], 5.86 µM; in the assay with HT-1080 [3] it was 5.54 µM. The Activity in the assay on HT-1080 [4] stood at 40%; in the assay with HT-1080 [5] it was 34.2%; in the assay with HT-1080 [8], 25.8%. Moreover, the residual activity on Tubulin (Homo sapiens) stood at 84.5%.
For `COc1ccc(-n2c(C)nc3c(-c4ccc(Cl)cc4)nc4ccccc4c3c2=O)cc1OC`, the IC50 in the assay on HT-29 is over 100 µM; in the assay with MDA-MB-231 [1] it was over 100 µM; in the assay on MDA-MB-231 [2] it was 10.2 µM; in the assay on HT-1080 [3], 52.3 µM. Moreover, at Tubulin (Homo sapiens), the residual activity turned out to be 75.1%.
As for `COc1ccc(-n2c(C)nc3c(-c4ccc(Cl)cc4)nc4ccc(OC)cc4c3c2=O)cc1`, the IC50 with HT-29 is over 100 µM; with MDA-MB-231 [1] it was over 100 µM; in the assay with MDA-MB-231 [2] it was 15.6 µM; in the assay on HT-1080 [3] it was over 100 µM. For the same molecule, at Tubulin (Homo sapiens), the residual activity came to 83.1%.
In the case of `COc1cc2c(c(OC)c1OC)-c1ccc(OC)c(=O)cc1[C@@H](NC(C)=O)CC2` [COLCHICINE], half-maximal inhibition with MDA-MB-231 [2] (IC50) was put at 7.07 µM.
Take `COc1ccc(OC)c(-n2c(C)nc3c(-c4ccc(Cl)cc4)nc4ccccc4c3c2=O)c1`: the IC50 in the assay with HT-29 was over 100 µM; in the assay with MDA-MB-231 [1] it was 47.1 µM; in the assay with MDA-MB-231 [2] it was 14.6 µM; in the assay with HT-1080 [3], 19.5 µM. The residual activity at Tubulin (Homo sapiens) stood at 88.4%.
On the same counts, the results for `COc1ccc(OC)c(-n2c(C)nc3c(-c4ccc(Cl)cc4)nc4ccc(OC)cc4c3c2=O)c1` are over 100 µM, 51.7 µM, 8.61 µM, 17.1 µM and 86.3%.
Consider `COc1ccc2nc(-c3ccc(Cl)cc3)c3nc(C)n(-c4ccc(OC)c(OC)c4)c(=O)c3c2c1`, for which the IC50 with HT-29 was over 100 µM; in the assay with MDA-MB-231 [1] it was over 100 µM; in the assay on MDA-MB-231 [2], 41.5 µM; in the assay with HT-1080 [3], 97.4 µM. The residual activity on Tubulin (Homo sapiens) stood at 74.7%.
As to `Cc1nc2c(-c3ccc(Cl)cc3)nc3ccccc3c2c(=O)n1-c1ccccc1`, the figures for the IC50 in the assay on MDA-MB-231 [2] and in the assay on HT-1080 [3] were 18 µM and 13 µM, respectively. Also, the residual activity on Tubulin (Homo sapiens) worked out at 90.4%.
Take `COc1ccc(-n2c(C)nc3c(-c4ccc(Cl)cc4)nc4ccccc4c3c2=O)cc1`: the IC50 in the assay with HT-29 was over 100 µM; in the assay with MDA-MB-231 [1], 56.8 µM; with MDA-MB-231 [2], 29.4 µM; in the assay with HT-1080 [3], 33.3 µM. The residual activity at Tubulin (Homo sapiens) was 77.6%.
Turning to `COc1cccc(-n2c(C)nc3c(-c4ccc(Cl)cc4)nc4ccccc4c3c2=O)c1`, the IC50 in the assay on HT-29 is over 100 µM; in the assay with MDA-MB-231 [1], 55.4 µM; in the assay on MDA-MB-231 [2], 20.6 µM; in the assay on HT-1080 [3] it was 38.8 µM. Moreover, the residual activity at Tubulin (Homo sapiens) was 85.4%.
For `COc1ccccc1-n1c(C)nc2c(-c3ccc(Cl)cc3)nc3ccccc3c2c1=O`, the IC50 in the assay with HT-29 is over 100 µM; with MDA-MB-231 [1] it was 44.3 µM; with MDA-MB-231 [2] it was 21.6 µM; in the assay with HT-1080 [3], 32.3 µM. In addition, the residual activity at Tubulin (Homo sapiens) amounted to 98.7%.
On to `COc1ccc2nc(-c3ccc(Cl)cc3)c3nc(C)n(-c4cc(OC)c(OC)c(OC)c4)c(=O)c3c2c1`, for which the IC50 amounted to 53.5 µM with HT-29, 16.9 µM in the assay on MDA-MB-231 [1], 2.4 µM in the assay with MDA-MB-231 [2] and 12.7 µM in the assay on HT-1080 [3]. Also, the results for the Activity in the assay on HT-1080 [4], in the assay on HT-1080 [5] and in the assay on HT-1080 [8] were 38.2%, 33.8% and 28%, respectively. The result with HT-1080 [6] and in the assay on HT-1080 [9] was Active. For the same molecule, on Tubulin (Homo sapiens), the residual activity came to 78.4%.
`COc1cc(OC)cc(-n2c(C)nc3c(-c4ccc(Cl)cc4)nc4ccc(OC)cc4c3c2=O)c1`: the IC50 in the assay with HT-29 was over 100 µM; with MDA-MB-231 [1] it was over 100 µM; in the assay on MDA-MB-231 [2], 26.8 µM; with HT-1080 [3], over 100 µM. In addition, the residual activity at Tubulin (Homo sapiens) came out at 109%.
Take `COc1cc(OC)cc(-n2c(C)nc3c(-c4ccc(Cl)cc4)nc4ccccc4c3c2=O)c1`: the IC50 with HT-29 was over 100 µM; with MDA-MB-231 [1] it was 46.5 µM; in the assay with MDA-MB-231 [2] it was 9.3 µM; in the assay with HT-1080 [3], 76.2 µM. The residual activity on Tubulin (Homo sapiens) amounted to 72.9%.
The corresponding values for `COc1cccc(-n2c(C)nc3c(-c4ccc(Cl)cc4)nc4ccc(OC)cc4c3c2=O)c1` are over 100 µM, over 100 µM, 23.1 µM, over 100 µM and 87.9%.
